Assay [1] addresses human carbonic anhydrase II (hCA 2) (Homo sapiens, UniProt P00918). The assay is described as follows: Human Carbonic Anhydrase II inhibition. It counts as biochemical.
Assay [2] in a line: oral biological activity: % uterine weight increase compared to vehicle. The assay is classed as in vivo, rat. Particulars: Rattus norvegicus, oral; for change in vivo at 0.01 mg: 10.0 μg. As for the experimental part: Exemplary compounds were tested for: oral biological activity (Table 1); binding to human carbonic anhydrase II (hCA 2) (Table 2); and, for some compounds enzymatic saponification (Table 3).

Another assay has as its target T1, sulfatase (Homo sapiens, UniProt P08842).
T1 construct: host or cells: in vivo, women
T1 sequence (P08842 22-583): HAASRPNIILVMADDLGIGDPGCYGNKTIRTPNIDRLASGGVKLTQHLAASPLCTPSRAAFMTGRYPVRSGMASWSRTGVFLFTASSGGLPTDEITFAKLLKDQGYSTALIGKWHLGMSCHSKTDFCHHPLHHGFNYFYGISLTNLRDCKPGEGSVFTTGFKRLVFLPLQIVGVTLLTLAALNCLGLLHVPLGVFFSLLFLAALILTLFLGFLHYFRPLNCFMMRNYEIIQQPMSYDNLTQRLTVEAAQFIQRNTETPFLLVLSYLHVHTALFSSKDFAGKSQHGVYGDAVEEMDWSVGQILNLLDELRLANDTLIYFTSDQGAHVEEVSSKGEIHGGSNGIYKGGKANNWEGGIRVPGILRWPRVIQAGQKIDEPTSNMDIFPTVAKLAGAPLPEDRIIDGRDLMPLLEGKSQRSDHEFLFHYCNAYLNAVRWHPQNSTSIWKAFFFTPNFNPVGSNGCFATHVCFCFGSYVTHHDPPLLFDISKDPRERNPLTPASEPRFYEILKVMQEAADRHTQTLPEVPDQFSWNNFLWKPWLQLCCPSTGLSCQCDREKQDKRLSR
The note with it: in women; cited from earlier work.

In assay [3] the test system is ovarectomized female rats. The note with it: compared with estradiol and ethinyl estradiol; cited from earlier work.

Each structure is given as a SMILES string. Read-outs that look alike come from different tables or passages of the source.

Consider `CC(C)[C@H](NC(=O)c1ccc(S(N)(=O)=O)cc1)C(=O)O[C@H]1CCC2C3CCc4cc(O)ccc4C3CC[C@@]21C` (stereo partly drawn) [Compound 19A, [(13S,17S)-3-hydroxy-13-methyl-6,7,8,9,11,12,14,15,16,17-decahydrocyclopenta[a]phenanthren-17-yl] (2S)-3-methyl-2-[(4-sulfamoylbenzoyl)amino]butanoate], for which the IC50 in assay [1] (read-out: hCAII (IC50 nM)) was 202 nM. The molecule also displayed a change in vivo at 0.01 mg in assay [2] of 267%.

Turning to `CC(C)(NC(=O)c1ccc(S(N)(=O)=O)cc1)C(=O)O[C@H]1CCC2C3CCc4cc(O)ccc4C3CC[C@@]21C` (stereo partly drawn) [Compound 20A, [(13S,17S)-3-hydroxy-13-methyl-6,7,8,9,11,12,14,15,16,17-decahydrocyclopenta[a]phenanthren-17-yl] 2-methyl-2-[(4-sulfamoylbenzoyl)amino]propanoate], half-maximal inhibition in assay [1] (IC50) was put at 232 nM. Further, the change in vivo at 0.01 mg in assay [2] was 97.1%.

On to `C[C@]12CCC3c4ccc(O)cc4CCC3C1CC[C@@H]2OC(=O)[C@H](Cc1ccccc1)NC(=O)c1ccc(S(N)(=O)=O)cc1` (stereo partly drawn) [Compound 21A, [(13S,17S)-3-hydroxy-13-methyl-6,7,8,9,11,12,14,15,16,17-decahydrocyclopenta[a]phenanthren-17-yl] (2S)-3-phenyl-2-[(4-sulfamoylbenzoyl)amino]propanoate], for which the IC50 in assay [1] (read-out: hCAII (IC50 nM)) came to 100 nM. The molecule further displayed a change in vivo at 0.01 mg in assay [2] of 117%.

With `C[C@]12CCC3c4ccc(O)cc4CCC3C1CC[C@@H]2OC(=O)[C@@H]1CCCN1c1ccc(S(N)(=O)=O)cc1` (stereo partly drawn) [Compound 22A, [(13S,17S)-3-hydroxy-13-methyl-6,7,8,9,11,12,14,15,16,17-decahydrocyclopenta[a]phenanthren-17-yl] 1-(4-sulfamoylphenyl)pyrrolidine-2-carboxylate], the half-inhibitory concentration (IC50) in assay [1] (read-out: hCAII (IC50 nM)) came out at 198 nM. Further, in assay [2], the change in vivo at 0.01 mg turned out to be 91.6%.

With `C[C@]12CCC3c4ccc(O)cc4CCC3C1CC[C@@H]2OC(=O)[C@@H]1CCCN1Cc1ccc(S(N)(=O)=O)cc1` (stereo partly drawn) [Compound 23A, [(13S,17S)-3-hydroxy-13-methyl-6,7,8,9,11,12,14,15,16,17-decahydrocyclopenta[a]phenanthren-17-yl] 1-[(4-sulfamoylphenyl)methyl]pyrrolidine-2-carboxylate], the IC50 in assay [1] (read-out: hCAII (IC50 nM)) amounted to 129 nM. In assay [2], this molecule had a change in vivo at 0.01 mg of 272%.

For the molecule `C[C@]12CCC3c4ccc(OS(N)(=O)=O)cc4CCC3C1CC[C@@H]2O` (stereo partly drawn) [Compound J995, (13S,17S)-17-hydroxy-13-methyl-7,8,9,11,12,13,14,15,16,17-decahydro-6H-cyclopenta[a]phenanthren-3-yl sulfamate, reference compound], in assay [1] (read-out: hCAII (IC50 nM)), the 50% inhibitory concentration (IC50) is 295 nM. The inhibition of sulfatase result at sulfatase is “acted as an inhibitor of sulfatase”. Moreover, the “estrogenic activity after oral administration” value in assay [3] is “higher estrogenic activity after oral administration than estradiol and ethinyl estradiol”. Also, in assay [2] (30.0 μg), the change in vivo at 0.03 mg stood at 203%.

As a reminder, the IC50 is the concentration that inhibits the measured activity by half.

The record behind these values is US10273263B2, “Pro-drug forming compounds” (priority 2013, dated 2019).
